Laboratory results taken from patent publication US20240391954A1, “MC4R AGONIST PEPTIDES” (The Regents of the University of Michigan, priority 2021, published 2024).
Positions of bridges follow the written chain, without caps; N, C: chain ends. Non-standard residues stand in square brackets, D forms with d. Residues, ends and D or L forms follow the SMILES beside them. 4Pal = N[C@@H](Cc1ccncc1)C(=O)O; Cit = NC(=O)NCCC[C@H](N)C(=O)O; NMeA = CN[C@@H](C)C(=O)O; Nle = CCCC[C@H](N)C(=O)O; Aib = CC(C)(N)C(=O)O

Tests used:
Type in all cases: cell-based
human MC1R = molecular target: T1, human MC1R (Homo sapiens, UniProt Q01726); assay: split-luciferase cAMP sensor assay, agonist mode, hMC1R; conditions: MC4R versus MC1R
T1 construct: expressed in transfected cells; host or cells: HEK-293 cells stably expressing hMC1R and the GScAMP22F cAMP sensor
T1 sequence (Q01726 whole entry): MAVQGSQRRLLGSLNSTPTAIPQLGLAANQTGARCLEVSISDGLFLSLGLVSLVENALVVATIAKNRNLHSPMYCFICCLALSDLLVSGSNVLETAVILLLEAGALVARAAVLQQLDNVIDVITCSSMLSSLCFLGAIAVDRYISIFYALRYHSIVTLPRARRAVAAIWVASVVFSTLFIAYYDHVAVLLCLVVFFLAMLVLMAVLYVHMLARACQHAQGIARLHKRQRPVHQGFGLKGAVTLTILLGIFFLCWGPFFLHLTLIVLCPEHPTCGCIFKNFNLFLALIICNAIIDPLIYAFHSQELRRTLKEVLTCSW
Experimental: FIG. 4A-B. (A) Pharmacological properties of exemplary MC4R agonist peptides, including those with improved efficacy in the MC4R+/− mouse (CTX-1211, CTX-1227, and CTX-1228). Concentration-response agonist curves for peptides indicated at the human MC4R (red), human MC3R (blue), human MC5R (green), and human MC1R (black) were determined by a split-luciferase cAMP sensor dynamic assay in HEK-293 cells stably expressing the hMC1R, hMC3R, hMC4R, or hMC5R and the GScAMP22F cAMP sensor. Each data point represents the mean±SEM of two experiments with three replicates each per experiment. Data is normalized to the ECmax of α-MSH. (B) Same as above, for peptides representing reduced activity at the hMC1R. Inset tables indicate EC50 values for the ligand indicated for each receptor.
The assay for the determination of the cAMP response in live cells was described previously. (Yu et al., 2020, Science 368, 428-433; incorporated by reference in its entirety). Cells were seeded at a density of 20,000 cells per well using 384-well poly-D lysine-coated, clear bottom, and black-wall assay plates (Corning Inc. Corning, NJ). Cells were allowed to attach to the plates for 18 to 24 h after which growth media was removed and 20 μl of 4% D-luciferin (Promega) in CO2 independent, serum-free medium (Thermo Fisher Scientific) was added to each well. The luciferase substrate was allowed to permeate the cells for 120 min at 37° C. Intracellular cAMP levels were measured using an FDSS 7000EX Functional Drug Screening System (Hamamatsu Photonics, Hamamatsu, Japan) in the Center for Chemical Genomics at the Life Sciences Institute. This instrument allowed the in-line addition of test-peptides and receptor agonists while simultaneously acquiring the luminescence signal from live cells. Assay read steps were set as follows: baseline acquisition of 2 min, the addition of 10 μl of varying 3× concentrations of test-peptides or vehicle followed by 11 min measurement (measurement window 1), and 10 μl addition of 4× concentration of the endogenous melanocortin agonist α-MSH (Bachem, Bubendorf, Switzerland) followed by an additional 11 min response measurement (measurement window 2). The resulting final concentration of α-MSH was close to the respective receptor EC90 dose for each receptor. Intraplate concentration response curves for α-MSH and SHU-9119 (Phoenix Pharmaceuticals, Burlingame CA) were included as reference controls. A submaximal forskolin (20 μM) concentration was also included to serve as a normalization reference to account for cell number variations and differences in assay transducer efficiency between cell lines.
With this set up it was possible to evaluate the direct effect of the test-peptides on the MC3R and MC4R cell lines during measurement window 1, while the antagonist profile in the presence of EC90 α-MSH was determined on measurement window 2. For data analysis baseline luminescence (i.e. the maximum luminescence signal from the initial 0 to 2 min window) was subtracted from the maximum luminescence obtained during measurement window 1 (2 to 13 min) and measurement window 2 (13 to 24 min) to yield the test-peptide elicited responses. EC50 or IC50 potency values were determined by non-linear regression by fitting the data to a sigmoid four-parameter variable slope model using the GraphPad Prism version 8.4 software package (San Diego CA).

human MC4R = molecular target: T2, human MC4R (Homo sapiens, UniProt P32245); assay: split-luciferase cAMP sensor assay, agonist mode (measurement window 1), hMC4R; conditions: agonist mode; for Emax: % maximal activation, read-out: MC4R cAMP % max activation; for EC50: HEK-293 cells stably expressing hMC4R, read-out: MC4R cAMP EC50
T2 construct: host or cells: HEK-293 cells stably expressing the GScAMP22F split-luciferase cAMP sensor and hMC4R, G418 selection
T2 sequence (P32245 whole entry): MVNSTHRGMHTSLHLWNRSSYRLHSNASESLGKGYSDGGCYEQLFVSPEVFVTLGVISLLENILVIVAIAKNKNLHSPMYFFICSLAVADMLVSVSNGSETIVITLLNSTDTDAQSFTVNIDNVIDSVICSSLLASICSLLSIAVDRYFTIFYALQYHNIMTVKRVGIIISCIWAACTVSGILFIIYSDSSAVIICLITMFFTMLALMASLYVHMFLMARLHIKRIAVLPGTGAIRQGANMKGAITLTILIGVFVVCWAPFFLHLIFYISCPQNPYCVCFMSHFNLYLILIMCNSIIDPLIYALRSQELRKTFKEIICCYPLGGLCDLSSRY
How it was run: (§1)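 EC50 values come from a four-parameter variable-slope fit of luminescence in measurement window 1, capturing direct peptide effects on receptor-expressing cells with a cAMP22f luciferase sensor. Cells were preloaded with 4% D-luciferin, serum-free medium; 20 μM forskolin normalized for cell number and transducer efficiency.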

human MC3R = molecular target: T3, human MC3R (Homo sapiens, UniProt P41968); assay: split-luciferase cAMP sensor assay, agonist mode (measurement window 1), hMC3R; conditions: for Emax: % maximal activation, read-out: MC3R cAMP % max activation; for Emax / EC50: agonist mode; for EC50: HEK-293 cells stably expressing hMC3R, read-out: MC3R cAMP EC50; for MC4R selectivity vs MC3R: MC4R versus MC3R
T3 construct: expressed in transfected cells; host or cells: HEK-293 cells stably expressing the GScAMP22F split-luciferase cAMP sensor (parent reporter line from Promega); MC3R clone generated in-house, G418 selection
T3 sequence (P41968 whole entry): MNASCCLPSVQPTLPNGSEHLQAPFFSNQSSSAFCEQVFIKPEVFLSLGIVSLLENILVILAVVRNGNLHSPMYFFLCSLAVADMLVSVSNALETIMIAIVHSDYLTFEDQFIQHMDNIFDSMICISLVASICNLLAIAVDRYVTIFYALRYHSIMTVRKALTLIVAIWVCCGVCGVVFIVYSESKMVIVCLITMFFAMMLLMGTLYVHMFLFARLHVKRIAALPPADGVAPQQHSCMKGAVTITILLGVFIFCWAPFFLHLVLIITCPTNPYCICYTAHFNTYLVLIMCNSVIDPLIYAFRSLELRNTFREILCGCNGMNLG
How it was run: as §1

SMILES	MC4R selectivity vs MC1R (human MC1R)	Emax (human MC4R)	Emax (human MC3R)	EC50 (human MC3R)	MC4R selectivity vs MC3R (human MC3R)	EC50 (human MC4R)
CC(=O)N[C@@H](CCCNC(=N)N)C(=O)N[C@H]1CSSC[C@@H](C(N)=O)NC(=O)[C@@H](Cc2c[nH]c3ccccc23)NC(=O)[C@H](CCCNC(=N)N)NC(=O)[C@@H](Cc2ccccc2)NC(=O)[C@H](CCCNC(=N)N)NC(=O)[C@@H](C)NC1=O [CTX-1263, Arg-cyclo(Cys-D-Ala-Arg-D-Phe-Arg-D-Trp-Cys)] (Ac-RC[dA]R[dF]R[dW]C-NH2; disulfide 2-8)	1.73	93%	69%	11 nM	1.62	–
CC1(C)NC(=O)CSC[C@@H](C(N)=O)NC(=O)[C@H](Cc2c[nH]c3ccccc23)NC(=O)[C@H](CCCNC(=N)N)NC(=O)[C@@H](Cc2ccccc2)NC(=O)[C@H](CCCNC(N)=O)NC1=O [CTX-1649, Thioether-cyclo(Aib-Cit-D-Phe-Arg-Trp-Cys)] ({CH2CO}-[Aib][Cit][dF]RWC-NH2; thioether N-6)	1652	97%	79%	–	72	–
CC[C@H]1NC(=O)[C@@H](NC(=O)[C@H](CCCNC(=N)N)NC(C)=O)CSSC[C@@H](C(N)=O)NC(=O)[C@H](Cc2c[nH]c3ccccc23)NC(=O)[C@H](CCCNC(=N)N)NC(=O)[C@@H](Cc2ccccc2)NC(=O)[C@H](Cc2c[nH]cn2)NC1=O [CTX-1295, Arg-cyclo(Cys-D-Abu-His-D-Phe-Arg-Trp-Cys)]	2.79	102%	97%	1.6 nM	6.31	0.25 nM
CC(=O)N[C@H]1CSSC[C@@H](C(N)=O)NC(=O)[C@H](Cc2c[nH]c3ccccc23)NC(=O)[C@H](CCCNC(=N)N)NC(=O)[C@@H](Cc2ccccc2)NC(=O)[C@H](CCCNC(=N)N)NC(=O)[C@@H](C)NC1=O [CTX-1627, cyclo(Cys-D-Ala-Arg-D-Phe-Arg-Trp-Cys)] (Ac-C[dA]R[dF]RWC-NH2; disulfide 1-7 (inferred))	9.33	104%	98%	3.7 nM	2.47	1.4 nM
CC(=O)N[C@@H](CCCNC(=N)N)C(=O)N[C@H]1CSSC[C@@H](C(N)=O)NC(=O)[C@H](Cc2c[nH]c3ccccc23)NC(=O)[C@H](CCCNC(=N)N)NC(=O)[C@@H](Cc2ccccc2)NC(=O)[C@H](CCCNC(=N)N)NC(=O)C(C)(C)NC1=O [CTX-1292, Arg-cyclo(Cys-Aib-Arg-D-Phe-Arg-Trp-Cys)] (Ac-RC[Aib]R[dF]RWC-NH2; disulfide 2-8 (inferred))	2.46	90%	76%	–	21	–
CC(=O)N[C@@H](CCCNC(=N)N)C(=O)N[C@H]1CSSC[C@@H](C(N)=O)NC(=O)[C@H](Cc2ccccc2)NC(=O)[C@H](CCCNC(=N)N)NC(=O)[C@@H](Cc2ccccc2)NC(=O)[C@H](Cc2ccncc2)NC(=O)C(C)(C)NC1=O [CTX-1606, Arg-cyclo(Cys-Aib-Pal(4′)-D-Phe-Arg-Phe-Cys)] (Ac-RC[Aib][4Pal][dF]RFC-NH2; disulfide 2-8 (inferred))	2.99	92%	7.69%	–	0.62	–
CCCC[C@H](NC(=O)[C@H](CCCNC(=N)N)NC(C)=O)C(=O)N[C@H]1CSSC[C@@H](C(N)=O)NC(=O)[C@@H](Cc2c[nH]c3ccccc23)NC(=O)[C@H](CCCNC(=N)N)NC(=O)[C@@H](Cc2ccccc2)NC(=O)[C@H](CCCNC(N)=O)NC1=O [CTX-1608, Arg-Nle-cyclo(Cys-Cit-D-Phe-Arg-D-Trp-Cys)] (Ac-R[Nle]C[Cit][dF]R[dW]C-NH2; disulfide 3-8 (inferred))	2.07	79%	19%	–	0.95	288 nM
CC(=O)N[C@H]1CSSC[C@@H](C(N)=O)NC(=O)[C@H](Cc2c[nH]c3ccccc23)NC(=O)[C@H](CCCNC(=N)N)NC(=O)[C@@H](Cc2ccccc2)NC(=O)[C@H](CCCNC(N)=O)NC(=O)CNC1=O [CTX-1630, cyclo(Cys-Gly-Cit-D-Phe-Arg-Trp-Cys)] (Ac-CG[Cit][dF]RWC-NH2; disulfide 1-7 (inferred))	1816	102%	35%	–	28	–
N=C(N)NCCC[C@@H]1NC(=O)[C@@H](Cc2ccccc2)NC(=O)[C@H](CCCNC(N)=O)NC(=O)CNC(=O)CSC[C@@H](C(N)=O)NC(=O)[C@H](Cc2c[nH]c3ccccc23)NC1=O [CTX-1646, Thioether-cyclo(Gly-Cit-D-Phe-Arg-Trp-Cys)] ({CH2CO}-G[Cit][dF]RWC-NH2; thioether N-6)	>770	103%	70%	–	193	13 nM
N=C(N)NCCC[C@@H]1NC(=O)[C@@H](Cc2ccccc2)NC(=O)[C@H](Cc2c[nH]cn2)NC(=O)CNC(=O)CSC[C@@H](C(N)=O)NC(=O)[C@H](Cc2c[nH]c3ccccc23)NC1=O [CTX-1644, Thioether-cyclo(Gly-His-D-Phe-Arg-Trp-Cys)] ({CH2CO}-GH[dF]RWC-NH2; thioether N-6)	4.84	111%	107%	–	53	2.3 nM
CC1(C)NC(=O)CSC[C@@H](C(N)=O)NC(=O)[C@H](Cc2ccccc2)NC(=O)[C@H](CCCNC(=N)N)NC(=O)[C@@H](Cc2ccccc2)NC(=O)[C@H](CCCNC(=N)N)NC1=O [CTX-1651, Thioether-cyclo(Aib-Arg-D-Phe-Arg-Phe-Cys)] ({CH2CO}-[Aib]R[dF]RFC-NH2; thioether N-6)	1.45	92%	–	> 10000 nM	>8	–
CC(=O)N[C@@H](CCCNC(=N)N)C(=O)N[C@H]1CSSC[C@@H](C(N)=O)NC(=O)[C@@H](Cc2c[nH]c3ccccc23)NC(=O)[C@H](CCCNC(=N)N)NC(=O)[C@@H](Cc2ccccc2)NC(=O)[C@H](CCCNC(=N)N)NC(=O)[C@H](C)N(C)C1=O [CTX-1269, Arg-cyclo(Cys-NMe-Ala-Arg-D-Phe-Arg-D-Trp-Cys)] (Ac-RC[NMeA]R[dF]R[dW]C-NH2; disulfide 2-8 (inferred))	2.56	92%	39%	–	9.31	13 nM
C[C@H]1NC(=O)CSC[C@@H](C(N)=O)NC(=O)[C@H](Cc2c[nH]c3ccccc23)NC(=O)[C@H](CCCNC(=N)N)NC(=O)[C@@H](Cc2ccccc2)NC(=O)[C@H](CCCNC(=N)N)NC1=O [CTX-1642, Thioether-cyclo(D-Ala-Arg-D-Phe-Arg-Trp-Cys)] ({CH2CO}-[dA]R[dF]RWC-NH2; thioether N-6)	13	107%	90%	–	29	2.9 nM
